Results as given in ChEMBL document CHEMBL1155045, “Apoptosis-inducing galactolipids from a cultured marine diatom, Phaeodactylum tricornutum” (2008).

How the values were obtained:
Assay type in all cases: functional
[1] = Effect on apoptosis-inducing gene deffective mouse D3 cells assessed as cell growth at 64 uM after 48 hrs by MTT assay; settings: D3, 48 h, read-out: Activity
[2] = Induction of apoptosis in mouse W2 cells assessed as cell death at 64 uM after 48 hrs by MTT assay
[3] = Induction of apoptosis in mouse W2 cells assessed as cell death at 52 uM after 48 hrs by MTT assay
[4] = Effect on apoptosis-inducing gene deffective mouse D3 cells assessed as cell growth at 52 uM after 48 hrs by MTT assay; settings: D3, 48 h, read-out: Activity

**Q.** Which growth at 64 µM [1] does the source give for CC/C=C\C/C=C\C/C=C\C/C=C\C/C=C\CC(=O)OC[C@H](CO[C@@H]1O[C@H](CO)[C@H](O)[C@H](O)C1O)OC(=O)CCCC/C=C\C/C=C\C/C=C\C/C=C\CC (single isomer, unassigned) here?
**A.** 14%

**Q.** What about the Activity [2] of the same compound?
**A.** 18%

**Q.** For CC/C=C\C/C=C\C/C=C\C/C=C\C/C=C\CCCC(=O)OC[C@H](CO[C@@H]1O[C@H](CO)[C@H](O)[C@H](O)C1O)OC(=O)CCCC/C=C\C/C=C\C/C=C\CCC (single isomer, unassigned), which Activity [3] is on record?
**A.** 18%

**Q.** What about the growth at 52 µM [4] of the same compound?
**A.** 10%
